Values after ≈ are worked out from the molar mass of the structure shown.
How the values were obtained:
Mus musculus [1] = assay: Toxicity in ICR mouse assessed as mortality administered as single dose at 100 mg/kg, iv after 7 days; assay type: organism-based; set-up: dose 100 mg/kg, route intravenous; details: in vivo, 168 h
Streptococcus pyogenes = assay: Antibacterial activity against Streptococcus pyogenes IID692 after 18 hrs by agar dilution method; assay type: functional
Staphylococcus aureus [2] = assay: Antibacterial activity against Staphylococcus aureus Smith after 18 hrs by agar dilution method; assay type: functional
Klebsiella pneumoniae = assay: Antibacterial activity against Klebsiella pneumoniae IID5209 after 18 hrs by agar dilution method; assay type: functional
Pseudomonas aeruginosa = assay: Antibacterial activity against Pseudomonas aeruginosa IID1210 after 18 hrs by agar dilution method; assay type: functional
Enterococcus faecalis [3] = assay: Antibacterial activity against quinoline-resistant Enterococcus faecalis No.15 isolate after 18 hrs by agar dilution method; assay type: functional
Enterococcus faecalis [4] = assay: Antibacterial activity against Enterococcus faecalis IID682 after 18 hrs by agar dilution method; assay type: functional
Mus musculus [5] = assay: Toxicity in intracerebroventricularly dosed ICR mouse assessed as induction of convulsion after 2 hrs in presence of fenbufen; assay type: organism-based; details: in vivo, icv_or_intrathecal
Enterococcus faecalis [6] = assay: Antibacterial activity against vancomycin-resistant Enterococcus faecalis KU1856 after 18 hrs by agar dilution method; assay type: functional
Escherichia coli = assay: Antibacterial activity against Escherichia coli NIHJ JC2 after 18 hrs by agar dilution method; assay type: functional; details: NIHJ JC2, 18 h
Streptococcus pneumoniae [7] = assay: Antibacterial activity against Streptococcus pneumoniae type 3 after 18 hrs by agar dilution method; assay type: functional
Streptococcus pneumoniae [8] = assay: Antibacterial activity against quinoline-resistant Streptococcus pneumoniae no.55 isolate after 18 hrs by agar dilution method; assay type: functional
Mus musculus [9] = assay: Toxicity in intracerebroventricularly dosed ICR mouse assessed as induction of convulsion after 2 hrs in absence of fenbufen; assay type: organism-based; details: in vivo, icv_or_intrathecal
Haemophilus influenzae = assay: Antibacterial activity against Haemophilus influenzae IID983 after 18 hrs by agar dilution method; assay type: functional
Staphylococcus aureus [10] = assay: Antibacterial activity against quinoline-resistant Staphylococcus aureus OITI MR1-1002 isolate after 18 hrs by agar dilution method; assay type: functional
Enterococcus faecalis [11] = assay: Antibacterial activity against vancomycin-resistant Enterococcus faecalis KU1866 after 18 hrs by agar dilution method; assay type: functional
Staphylococcus aureus [12] = assay: Antibacterial activity against quinoline-resistant Staphylococcus aureus MS5935 containing double grlA and single gyrA mutation after 18 hrs by agar dilution method; assay type: functional
Staphylococcus aureus [13] = assay: Antibacterial activity against quinoline-resistant Staphylococcus aureus MS5935 containing double grlA and double gyrA mutation after 18 hrs by agar dilution method; assay type: functional
[14] = Inhibition of Staphylococcus aureus MS5935 wild type topoisomerase 4-mediated decatenation activity
Staphylococcus aureus [15] = assay: Antibacterial activity against quinoline-resistant Staphylococcus aureus MS5935 containing single grlA and single gyrA mutation after 18 hrs by agar dilution method; assay type: functional
Streptococcus pneumoniae [16] = assay: Antibacterial activity against Streptococcus pneumoniae type 3 infected in po dosed ICR mouse administered 1 hr after bacterial challenge measured at 7 days post infection; assay type: functional
Streptococcus pneumoniae [17] = assay: Antibacterial activity against Streptococcus pneumoniae type 3 infected in subcutaneously dosed ICR mouse administered 1 hr after bacterial challenge measured at 7 days post infection; assay type: functional; details: sc
DNA gyrase [18] = target: T1, DNA gyrase (Staphylococcus aureus, UniProt P0A0K8+P20831); assay: Inhibition of quinoline-resistant Staphylococcus aureus MS5935 DNA gyrase-mediated supercoiling activity; assay type: protein-complex assay
Staphylococcus aureus [19] = assay: Antibacterial activity against quinoline-resistant wild type Staphylococcus aureus MS5935 after 18 hrs by agar dilution method; assay type: functional
Staphylococcus aureus [20] = assay: Antibacterial activity against Staphylococcus aureus Smith infected in subcutaneously dosed ICR mouse administered 1 hr after bacterial challenge measured at 7 days post infection; assay type: functional; details: sc
[21] = Inhibition of quinoline-resistant Staphylococcus aureus MS5935 topoisomerase 4-mediated decatenation activity
Staphylococcus aureus [22] = assay: Antibacterial activity against quinoline-resistant Staphylococcus aureus MS5935 containing single grlA mutation after 18 hrs by agar dilution method; assay type: functional
Staphylococcus aureus [23] = assay: Antibacterial activity against Staphylococcus aureus Smith infected in po dosed ICR mouse administered 1 hr after bacterial challenge measured at 7 days post infection; assay type: functional
Mus musculus [24] = assay: Phototoxicity in orally dosed ICR mouse assessed as skin erythema after 72 hrs; assay type: organism-based; details: in vivo, po
DNA gyrase [25] = target: T1, DNA gyrase; assay: Inhibition of Staphylococcus aureus MS5935 wild type DNA gyrase-mediated supercoiling activity; assay type: protein-complex assay
Mus musculus [26] = assay: Toxicity in ICR mouse assessed as mortality administered as single dose at 200 mg/kg, iv after 7 days; assay type: organism-based; set-up: dose 200 mg/kg, route intravenous; details: in vivo, 168 h

T1 sequence (P0A0K8 whole entry): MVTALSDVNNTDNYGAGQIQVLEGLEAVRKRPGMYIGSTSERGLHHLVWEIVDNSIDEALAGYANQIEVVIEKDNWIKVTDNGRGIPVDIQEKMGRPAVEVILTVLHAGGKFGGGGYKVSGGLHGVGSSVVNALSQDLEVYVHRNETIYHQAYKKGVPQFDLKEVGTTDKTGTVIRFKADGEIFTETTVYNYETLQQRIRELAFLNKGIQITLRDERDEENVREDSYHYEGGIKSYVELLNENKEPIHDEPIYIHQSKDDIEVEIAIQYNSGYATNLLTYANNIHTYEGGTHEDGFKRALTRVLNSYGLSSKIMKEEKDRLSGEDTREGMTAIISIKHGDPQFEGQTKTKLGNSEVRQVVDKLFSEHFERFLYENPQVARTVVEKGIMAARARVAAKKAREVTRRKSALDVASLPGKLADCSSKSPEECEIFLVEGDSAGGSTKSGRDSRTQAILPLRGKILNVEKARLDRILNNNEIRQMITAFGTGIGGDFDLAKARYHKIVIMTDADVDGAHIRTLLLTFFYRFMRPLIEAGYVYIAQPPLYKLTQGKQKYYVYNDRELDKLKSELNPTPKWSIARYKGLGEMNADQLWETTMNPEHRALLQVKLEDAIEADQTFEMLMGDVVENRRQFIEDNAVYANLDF
T1 sequence (P20831 whole entry): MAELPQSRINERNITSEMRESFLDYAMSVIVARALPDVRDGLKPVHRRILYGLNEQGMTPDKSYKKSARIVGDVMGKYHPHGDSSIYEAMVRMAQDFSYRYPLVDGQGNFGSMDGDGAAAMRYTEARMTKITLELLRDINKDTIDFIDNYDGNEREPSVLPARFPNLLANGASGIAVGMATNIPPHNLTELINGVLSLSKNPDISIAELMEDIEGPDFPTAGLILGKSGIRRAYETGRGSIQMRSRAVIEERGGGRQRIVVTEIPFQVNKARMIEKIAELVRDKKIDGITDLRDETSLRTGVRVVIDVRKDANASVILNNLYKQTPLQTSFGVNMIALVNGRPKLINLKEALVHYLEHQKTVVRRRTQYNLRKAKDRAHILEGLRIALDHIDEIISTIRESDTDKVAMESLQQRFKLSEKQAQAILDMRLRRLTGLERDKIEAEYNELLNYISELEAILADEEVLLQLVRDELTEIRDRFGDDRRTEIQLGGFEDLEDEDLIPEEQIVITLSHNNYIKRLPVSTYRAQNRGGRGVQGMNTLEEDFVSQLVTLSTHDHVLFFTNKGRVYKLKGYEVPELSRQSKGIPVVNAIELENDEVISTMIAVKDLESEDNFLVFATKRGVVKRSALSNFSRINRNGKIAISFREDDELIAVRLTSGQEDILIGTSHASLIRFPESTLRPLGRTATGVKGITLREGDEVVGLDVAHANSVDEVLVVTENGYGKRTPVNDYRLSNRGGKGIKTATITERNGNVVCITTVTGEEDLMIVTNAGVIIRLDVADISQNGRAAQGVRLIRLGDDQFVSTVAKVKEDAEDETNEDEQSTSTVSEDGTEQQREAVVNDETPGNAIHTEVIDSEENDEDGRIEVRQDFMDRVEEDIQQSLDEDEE

Structure (SMILES)	Activity (Mus musculus [1])	MIC (Streptococcus pyogenes)	MIC (Staphylococcus aureus [2])	MIC (Klebsiella pneumoniae)	MIC (Pseudomonas aeruginosa)	MIC (Enterococcus faecalis [3])	MIC (Enterococcus faecalis [4])	Activity (Mus musculus [5])	MIC (Enterococcus faecalis [6])	MIC (Escherichia coli)	MIC (Streptococcus pneumoniae [7])	MIC (Streptococcus pneumoniae [8])	Activity (Mus musculus [9])	MIC (Haemophilus influenzae)	MIC (Staphylococcus aureus [10])	MIC (Enterococcus faecalis [11])	Activity (Mus musculus [26])	also measured
C[C@@H]1CN(c2c(F)cc3c(=O)c(C(=O)O)cn4c3c2OC[C@@H]4C)C[C@@H]1CNC1CC1	Toxic	0.016 µg/mL (≈ 0.0385 µM)	0.008 µg/mL (≈ 0.0193 µM)	0.063 µg/mL (≈ 0.152 µM)	2 µg/mL (≈ 4.81 µM)	1 µg/mL (≈ 2.41 µM)	0.063 µg/mL (≈ 0.152 µM)	> 40 µg	1 µg/mL (≈ 2.41 µM)	0.016 µg/mL (≈ 0.0385 µM)	0.016 µg/mL (≈ 0.0385 µM)	0.125 µg/mL (≈ 0.301 µM)	> 40 µg	0.004 µg/mL (≈ 0.00963 µM)	0.5 µg/mL (≈ 1.2 µM)	1 µg/mL (≈ 2.41 µM)	–	–
NC1CCN(c2c(F)cc3c(=O)c(C(=O)O)cn(C4CC4)c3c2Cl)C1 (centres undefined) [CLINAFLOXACIN]	Non-toxic	0.063 µg/mL (≈ 0.172 µM)	0.016 µg/mL (≈ 0.0437 µM)	0.004 µg/mL (≈ 0.0109 µM)	0.125 µg/mL (≈ 0.342 µM)	8 µg/mL (≈ 21.9 µM)	0.063 µg/mL (≈ 0.172 µM)	5 µg	2 µg/mL (≈ 5.47 µM)	0.002 µg/mL (≈ 0.00547 µM)	0.031 µg/mL (≈ 0.0847 µM)	0.5 µg/mL (≈ 1.37 µM)	10 µg	≤ 0.001 µg/mL	8 µg/mL (≈ 21.9 µM)	4 µg/mL (≈ 10.9 µM)	Non-toxic	MIC (Staphylococcus aureus [12]): 2 µg/mL (≈ 5.47 µM); MIC (Staphylococcus aureus [13]): 8 µg/mL (≈ 21.9 µM); IC50 [14]: 1.89 µg/mL (≈ 5.17 µM); MIC (Staphylococcus aureus [15]): 0.5 µg/mL (≈ 1.37 µM); ED50 (Streptococcus pneumoniae [16]): 15 mg/kg; ED50 (Streptococcus pneumoniae [17]): 45 mg/kg; IC50 (DNA gyrase [18]): 44.3 µM; MIC (Staphylococcus aureus [19]): 0.016 µg/mL (≈ 0.0437 µM); ED50 (Staphylococcus aureus [20]): 0.35 mg/kg; IC50 [21]: 13.9 µg/mL (≈ 38 µM); MIC (Staphylococcus aureus [22]): 0.063 µg/mL (≈ 0.172 µM); ED50 (Staphylococcus aureus [23]): 2.1 mg/kg; Activity (Mus musculus [24]): Toxic; IC50 (DNA gyrase [25]): 3.14 µM
C[C@H]1COc2c(N3C[C@H](CNC4CC4)[C@H](F)C3)c(F)cc3c(=O)c(C(=O)O)cn1c23	Non-toxic	0.031 µg/mL (≈ 0.0739 µM)	0.008 µg/mL (≈ 0.0191 µM)	0.031 µg/mL (≈ 0.0739 µM)	2 µg/mL (≈ 4.77 µM)	0.5 µg/mL (≈ 1.19 µM)	0.063 µg/mL (≈ 0.15 µM)	> 40 µg	0.5 µg/mL (≈ 1.19 µM)	0.008 µg/mL (≈ 0.0191 µM)	0.016 µg/mL (≈ 0.0381 µM)	0.125 µg/mL (≈ 0.298 µM)	> 40 µg	0.004 µg/mL (≈ 0.00954 µM)	1 µg/mL (≈ 2.38 µM)	0.5 µg/mL (≈ 1.19 µM)	Non-toxic	–
C[C@H]1CN(c2c(F)cc3c(=O)c(C(=O)O)cn4c3c2OC[C@@H]4C)C[C@@H]1CNC1CC1	Non-toxic	0.016 µg/mL (≈ 0.0385 µM)	0.002 µg/mL (≈ 0.00481 µM)	0.125 µg/mL (≈ 0.301 µM)	4 µg/mL (≈ 9.63 µM)	1 µg/mL (≈ 2.41 µM)	0.031 µg/mL (≈ 0.0746 µM)	> 40 µg	1 µg/mL (≈ 2.41 µM)	0.016 µg/mL (≈ 0.0385 µM)	0.016 µg/mL (≈ 0.0385 µM)	0.5 µg/mL (≈ 1.2 µM)	> 40 µg	0.008 µg/mL (≈ 0.0193 µM)	2 µg/mL (≈ 4.81 µM)	1 µg/mL (≈ 2.41 µM)	Toxic	–
O=C(O)c1cn2c3c(c(N4C[C@H](CNC5CC5)[C@@H](F)C4)c(F)cc3c1=O)OC[C@@H]2CF	–	0.125 µg/mL (≈ 0.286 µM)	0.016 µg/mL (≈ 0.0366 µM)	0.125 µg/mL (≈ 0.286 µM)	4 µg/mL (≈ 9.14 µM)	4 µg/mL (≈ 9.14 µM)	0.125 µg/mL (≈ 0.286 µM)	–	2 µg/mL (≈ 4.57 µM)	0.031 µg/mL (≈ 0.0709 µM)	0.063 µg/mL (≈ 0.144 µM)	2 µg/mL (≈ 4.57 µM)	–	0.008 µg/mL (≈ 0.0183 µM)	16 µg/mL (≈ 36.6 µM)	4 µg/mL (≈ 9.14 µM)	–	–
C[C@H]1COc2c(N3CC[C@@H](CNC4CC4)C3)c(F)cc3c(=O)c(C(=O)O)cn1c23	Non-toxic	0.016 µg/mL (≈ 0.0399 µM)	0.008 µg/mL (≈ 0.0199 µM)	0.063 µg/mL (≈ 0.157 µM)	2 µg/mL (≈ 4.98 µM)	1 µg/mL (≈ 2.49 µM)	0.063 µg/mL (≈ 0.157 µM)	20 µg	0.5 µg/mL (≈ 1.25 µM)	0.008 µg/mL (≈ 0.0199 µM)	0.016 µg/mL (≈ 0.0399 µM)	0.25 µg/mL (≈ 0.623 µM)	20 µg	0.016 µg/mL (≈ 0.0399 µM)	2 µg/mL (≈ 4.98 µM)	0.5 µg/mL (≈ 1.25 µM)	Toxic	–
C[C@H]1COc2c(N3CCN(C)CC3)c(F)cc3c(=O)c(C(=O)O)cn1c23.C[C@H]1COc2c(N3CCN(C)CC3)c(F)cc3c(=O)c(C(=O)O)cn1c23.O [LEVOFLOXACIN]	–	0.5 µg/mL	0.125 µg/mL	0.016 µg/mL	0.5 µg/mL	64 µg/mL	1 µg/mL	–	32 µg/mL	≤ 0.001 µg/mL	–	–	–	0.008 µg/mL	> 128 µg/mL	32 µg/mL	–	MIC (Staphylococcus aureus [12]): 32 µg/mL; MIC (Staphylococcus aureus [13]): > 128 µg/mL; IC50 [14]: 5.44 µg/mL; MIC (Staphylococcus aureus [15]): 8 µg/mL; MIC (Staphylococcus aureus [19]): 0.125 µg/mL; IC50 [21]: 319 µg/mL; MIC (Staphylococcus aureus [22]): 0.5 µg/mL

Reference: ChEMBL document CHEMBL1150336, “Synthesis and antibacterial activity of novel pyrido[1,2,3-de][1,4]benzoxazine-6-carboxylic acid derivatives carrying the 3-cyclopropylaminomethyl-4-substituted-1-pyrrolidinyl group as a C-10 substituent” (J Med Chem, 2008)
